Values after ≈ are worked out from the molar mass of the structure shown. Marks after values point to notes of the source that are not given here.
What was measured:
C. parapsilosis 425 = test: Checkerboard chemosensitisation to fluconazole; type: cell-based; conditions: KN20 0-80 μM and FCZ 32 μg/ml tested, no chemosensitisation
Experimental: Checkerboard drug susceptibility assays were used to measure the chemosensitisation of cells to fluconazole by test compounds such as Pdr5p inhibitors. […] Cell inocula, growth conditions and the optical determination of growth were identical to standard liquid MIC determinations. The assays were conducted in 6 by 6 well arrays centred in a 96 well microtitre plate using buffered CSM-URA medium at pH 7.0, with fluconazole and/or peptide included in each well at the indicated concentration.

AD1002 = test: Disk drug susceptibility assay of chemosensitisation to fluconazole; type: cell-based, S. cerevisiae; conditions: 5 μg/ml fluconazole, 12 nanomole peptide on disk
Experimental: (A) Checkerboard drug susceptibility assay of AD1002. This assay was conducted as described in Materials and methods in the presence of the indicated concentrations of fluconazole and KN20. (B) Disk drug susceptibility assay of AD1002. This assay was conducted, as described in Materials and methods for Example 4, in the absence or presence of 5 μg/ml fluconazole, with (1) KN0 (12 nanomole), (2) KN20 (12 nanomole) or (0) control amounts of DMSO applied to the disks. (C) Checkerboard drug susceptibility assay of ATCC 10261. This assay was conducted, as described in Material and methods for Example 4, in the presence of the indicated concentrations of fluconazole and KN20. D indicates cell death as measured by a failure to recover any colony forming units when samples from microtitre plate wells were cultured on solid YPD medium.
Drug susceptibility was measured using disk assays on CSM-URA plates (containing 1.5% w/v agar). Plates were seeded with yeast cells suspended in top agar (5 ml, 10^5 cells/ml). For the uracil-dependent parental strain, agar was supplemented with 0.02% uridine. Five microliters of drug solution or solvent control were spotted onto sterile Whatman paper disks on the top agar. […]

[1] = system: S. cerevisiae AD1002 expressing C. albicans Cdr1p; test: MIC microdilution test, strain expressing Cdr1p; type: cell-based
Experimental: (§1) The MICs of antifungal agents for S. cerevisiae cells were determined by a microdilution test based on the macrodilution reference method of the National Committee for Clinical Laboratory Standards. Cells (10 μl cell suspension, 2×10^5 cells/ml) were inoculated into 90 μl CSM-URA, buffered with 10 mM 2-(N-morpholino)ethanesulfonic acid (MES) and 18 mM N-2-hydroxyethylpiperazine-N′-2-ethanesulfonic acid (HEPES), pH 7.0 and containing 0.67% (w/v) yeast nitrogen base (YNB) in microtitre plate wells. For the uracil-requiring strain AD1-8u^− the medium was supplemented with 0.02% (w/v) uridine. The wells contained, in […], doubling dilutions of antifungal agents (final concentrations: fluconazole, 40-0.078 μg/ml; itraconazole and ketoconazole, 8-0.016 μg/ml). The microtitre plates were incubated at 30° C. for 48 h with shaking and then the growth of cells in individual wells (OD590) was measured with a microplate reader (EL 340, Bio-Tek, Winooski, Vt.). The MIC80 was the lowest concentration of drug that inhibited growth yield by at least 80% compared to a no-drug control.

S. cerevisiae AD1-8/CDR2 = test: MIC microdilution test, strain expressing Cdr2p; type: cell-based; conditions: Saccharomyces cerevisiae, AD18/CDR2, 30° C.
Experimental: as §1

AD-ERG11 (Erg11p) = test: MIC in liquid microdilution assay, AD-ERG11; type: cell-based, S. cerevisiae; conditions: Saccharomyces cerevisiae
Experimental: as §1

AD-pABC3 = test: MIC in liquid microdilution assay, AD-pABC3 control; type: cell-based, S. cerevisiae; conditions: Saccharomyces cerevisiae; AD-pABC3 negative control strain
Experimental: as §1

[2] = system: SfiI-containing construct expressing Pdr5p; test: MIC, SfiI-containing Pdr5p construct; type: cell-based, S. cerevisiae; conditions: low Pdr5p expression
Experimental: as §1

[3] = system: AD1-8u^− derivative transformed with C. glabrata PDH1; test: MIC, PDH1 construct; type: cell-based, S. cerevisiae; conditions: Nakaseomyces glabratus; PDH1 hyper-expressed
Experimental: as §1

AD-CDR1 (Cdr1p) = test: Disk diffusion assay, AD-CDR1; type: cell-based, S. cerevisiae; conditions: AD-pABC as negative control, 30° C., 48 h
Experimental: The cells were spread on CSM-agar plates and exposed to the drugs or chemicals applied to filter disks and incubated at 30° C. for 48 h. The amounts of individual drugs are given in the Materials and Methods section of Example 3. Rhodamine 6G and rhodamine 123 were dissolved in ethanol and the other antifungals were dissolved in DMSO.
Drug susceptibility was measured using disk assays on CSM-URA plates (containing 1.5% w/v agar). Yeast cells (200 μl ml of 5×10^6 cells/ml) were spread on the plates. 10 μl of drug solution or solvent control were spotted onto sterile Whatman paper disks on the pre-spread plates. The following amounts (nmoles) of drugs were applied to individual disks: fluconazole, 633 (Pfizer Ltd., Sandwich, Kent, United Kingdom); itraconazole, 0.23 (Janssen); miconazole, 0.42 (Janssen); cycloheximide, 0.71 (Sigma); rhodamine 6G, 100 (Sigma, Penrose, Auckland, N. Z.); rhodamine 123, 125 (Sigma); cerulenin 4.5 (Sigma); 5-flucytosine 100 (Sigma); amphotericin B, 97 (E. R. Squibb & Sons, Princeton, N.J.); nystatin 65 (Sigma). Agar plates were incubated at 30° C. for 48 h or until clear growth inhibition zones were visible.

Compound	Fold-sensitisation by KN20 (For FCZ MIC) (C. parapsilosis 425)	chemosensitisation to fluconazole in disk assay (AD1002)	MIC80 ([1]; AD1002 expressing Cdr1p, 30° C., 48 h, pH 7.0)	fold increase in MIC ([1]; AD1002 relative to parental AD1-8u^−)	MIC80 (S. cerevisiae AD1-8/CDR2)	MIC (AD-ERG11 (Erg11p))	MIC (AD-pABC3)	MIC [2]	MIC [3]	resistance/sensitivity in disk diffusion assay (AD-CDR1 (Cdr1p))
D-octapeptide NH2-Asn-Trp-Trp-Lys-Val-Arg-Arg-Arg-CONH2 with a single 4-methoxy-2,3,6-trimethylbenzenesulphonyl (Mtr) substituent on one tryptophan sidechain; Pdr5p inhibitor [KN20]	1^b fold	chemosensitises	–	–	–	–	–	–	–	–
OC(Cn1cncn1)(Cn1cncn1)c1ccc(F)cc1F [fluconazole]	–	–	30 µg/mL (≈ 98 µM)	> 45 fold	64 µg/mL (≈ 209 µM)	2 µg/mL (≈ 6.53 µM)	0.5 µg/mL (≈ 1.63 µM)	< 40 mu.g/ml	200 µg/mL (≈ 653 µM)	resistances

Reference: patent US8728797B2, “Yeast membrane protein expression system and its application in drug screening” (priority 2001, dated 2014)
